In brackets after ≈: the same amount, converted by molar mass. Peptide text beside a SMILES is read from it.
Assays:
Escherichia coli [1] = assay: Antibacterial activity against Escherichia coli assessed as reduction in bacterial growth incubated for 20 hrs by broth microdilution assay; type: functional
Staphylococcus aureus [2] = assay: Antibacterial activity against Staphylococcus aureus assessed as bacterial growth inhibition incubated for 20 hrs by broth microdilution assay; type: functional
[3] = Hemolytic activity against Red blood cells (unknown origin) incubated for 1 hr by spectrophotometric analysis; type: toxicity, cell-based, Erythrocyte
Pseudomonas aeruginosa = assay: Antibacterial activity against Pseudomonas aeruginosa assessed as reduction in bacterial growth incubated for 20 hrs by broth microdilution assay; type: functional
Bacillus subtilis [4] = assay: Antibacterial activity against Bacillus subtilis assessed as reduction in bacterial growth incubated for 20 hrs by broth microdilution assay; type: functional
Staphylococcus aureus [5] = assay: Antibacterial activity against methicillin resistant Staphylococcus aureus ATCC 33591 assessed as inhibition of bacterial growth incubated for 16 to 20 hrs by broth micro-dilution method; type: functional; conditions: time 16-20 hrs
Enterococcus faecium [6] = assay: Antibacterial activity against Vancomycin resistant Enterococcus faecium ATCC 700221 assessed as inhibition of bacterial growth incubated for 16 to 20 hrs by broth micro-dilution method; type: functional; conditions: time 16-20 hrs
Erythrocyte = assay: Hemolytic activity in erythrocytes (unknown origin); type: toxicity, cell-based
Escherichia coli [7] = assay: Antibacterial activity against Escherichia coli ATCC 25922 assessed as bacterial growth inhibition incubate for 18 to 20 hrs by MH broth based assay; type: functional; conditions: time 18-20 hrs
Staphylococcus aureus [8] = assay: Antimicrobial activity against Staphylococcus aureus ATCC 25923 assessed as reduction in microbial growth incubated for 18 to 20 hrs by Mueller-Hinton broth based microdilution method; type: functional; conditions: time 18-20 hrs
Enterococcus faecium [9] = assay: Antimicrobial activity against Enterococcus faecium assessed as reduction in microbial growth incubated for 18 to 20 hrs by Mueller-Hinton broth based microdilution method; type: functional; conditions: time 18-20 hrs
[10] = Hemolytic activity in mouse RBC incubated for 1 hr; type: toxicity, cell-based, Erythrocyte; conditions: red blood cells
[11] = Hemolytic activity in human RBC; type: toxicity, cell-based, Erythrocyte; conditions: red blood cells
Bacillus subtilis [12] = assay: Antimicrobial activity against Bacillus subtilis ATCC 23857 assessed as reduction in microbial growth incubated for 18 to 20 hrs by Mueller-Hinton broth based microdilution method; type: functional; conditions: time 18-20 hrs

Structure (SMILES)	MIC (Escherichia coli [1]) [µM]	MIC (Staphylococcus aureus [2]) [µM]	MIC (Pseudomonas aeruginosa) [µM]	MIC (Bacillus subtilis [4]) [µM]	HC50 at 1 h [3] [µM]	MIC (Staphylococcus aureus [5]) [µM]	MIC (Enterococcus faecium [6]) [µM]	HC10 (Erythrocyte) [µM]	also measured
CC(C)C[C@H](NC(=O)CN)C(=O)N[C@@H](CC(C)C)C(=O)N[C@@H](CCCCN)C(=O)N[C@@H](CCCNC(=N)N)C(=O)N[C@H](Cc1ccc2ccccc2c1)C(=O)N[C@@H](CCCCN)C(=O)N[C@H](C(=O)N[C@@H](CC(C)C)C(=O)N[C@@H](CC1CCCCC1)C(N)=O)[C@@H](C)O						28.4 (≈ 36.3 µg/mL)	3.2 (≈ 4.09 µg/mL)	74.3	
CC[C@@H](C)[C@@H](NC(=O)[C@H](CCCCN)NC(=O)[C@H](CCCCN)NC(=O)[C@H](CC(C)C)NC(=O)[C@H](CC(C)C)NC(=O)CN)C(=O)N[C@@H](CCCCN)C(=O)N[C@H](C(=O)N[C@@H](CC(C)C)C(=O)N[C@@H](CC(C)C)C(N)=O)[C@@H](C)O						1020 (≈ 1150 µg/mL)	492 (≈ 554 µg/mL)	7209	
CC[C@@H](C)[C@@H](NC(=O)[C@H](CCCCN)NC(=O)[C@H](CCCCN)NC(=O)[C@H](CC(C)C)NC(=O)[C@H](CC(C)C)NC(=O)CN)C(=O)N[C@@H](CCCCN)C(=O)N[C@@H](CCCCN)C(=O)N[C@@H](CC(C)C)C(=O)N[C@@H](CC(C)C)C(N)=O						1020 (≈ 1180 µg/mL)	341 (≈ 393 µg/mL)	1962.4	
CC(C)C[C@H](NC(=O)[C@H](CC(C)C)NC(=O)[C@H](CCCCN)NC(=O)[C@H](CCCCN)NC(=O)[C@H](Cc1c[nH]c2ccccc12)NC(=O)[C@H](CCCNC(=N)N)NC(=O)[C@H](CCCCN)NC(=O)[C@H](CC(C)C)NC(=O)[C@H](CC(C)C)NC(=O)[C@@H](N)Cc1c[nH]c2ccccc12)C(N)=O									MIC (Escherichia coli [7]): 64 µM (≈ 88.5 µg/mL); MIC (Staphylococcus aureus [8]): 32 µM; MIC (Enterococcus faecium [9]): 16 µM; HC50 at 1 h [10]: > 200 µM; HC50 [11]: > 200 µM; MIC (Bacillus subtilis [12]): 16 µM
CC(C)C[C@H](NC(=O)[C@H](CC(C)C)NC(=O)[C@H](CCCCN)NC(=O)[C@H](CCCCN)NC(=O)[C@@H](Cc1ccc2ccccc2c1)NC(=O)[C@H](CCCNC(=N)N)NC(=O)[C@H](CCCCN)NC(=O)[C@H](CC(C)C)NC(=O)[C@H](CC1CCCCC1)NC(=O)CN)C(=O)O						9.5 (≈ 12.4 µg/mL)	3.2 (≈ 4.18 µg/mL)	27	

Further lines, with some results ahead:

MIC (Escherichia coli [1]) [µM]	MIC (Staphylococcus aureus [2]) [µM]	MIC (Pseudomonas aeruginosa) [µM]	MIC (Bacillus subtilis [4]) [µM]	Structure (SMILES)	HC50 at 1 h [3] [µM]	MIC (Staphylococcus aureus [5]) [µM]	MIC (Enterococcus faecium [6]) [µM]	HC10 (Erythrocyte) [µM]	also measured
2 (≈ 5.46 µg/mL)	4 (≈ 10.9 µg/mL)	2 (≈ 5.46 µg/mL)	2 (≈ 5.46 µg/mL)	CC[C@H](C)[C@H](NC(=O)CCCCCNC(=O)[C@H](CC(C)C)NC(=O)[C@H](CC(C)C)NC(=O)[C@@H](NC(=O)[C@H](CCCCN)NC(=O)[C@@H](NC(=O)[C@H](CCCNC(=N)N)NC(=O)[C@H](CCCCN)NC(=O)[C@H](CC(C)C)NC(=O)[C@H](CC(C)C)NC(=O)CN)[C@@H](C)CC)[C@@H](C)O)C(=O)N[C@@H](CC(N)=O)C(=O)N[C@@H](CC(C)C)C(=O)N[C@@H](CCCCN)C(=O)N[C@@H](C)C(=O)N[C@@H](CC(C)C)C(=O)N[C@@H](C)C(=O)N[C@@H](C)C(=O)N[C@@H](CC(C)C)C(=O)N[C@@H](C)C(=O)N[C@@H](CCCCN)C(=O)N[C@@H](CCCCN)C(=O)N[C@H](C(=O)N[C@@H](CC(C)C)C(N)=O)[C@@H](C)CC	60.2				
8 (≈ 21.8 µg/mL)	8 (≈ 21.8 µg/mL)	16 (≈ 43.7 µg/mL)	8 (≈ 21.8 µg/mL)	CC[C@H](C)[C@H](NC(=O)[C@H](CCCCN)NC(=O)[C@H](CCCCN)NC(=O)[C@H](C)NC(=O)[C@H](CC(C)C)NC(=O)[C@H](C)NC(=O)[C@H](C)NC(=O)[C@H](CC(C)C)NC(=O)[C@H](C)NC(=O)[C@H](CCCCN)NC(=O)[C@H](CC(C)C)NC(=O)[C@H](CC(N)=O)NC(=O)[C@@H](NC(=O)[C@H](CC(C)C)NC(=O)[C@H](CC(C)C)NC(=O)[C@H](CC(C)C)NC(=O)[C@@H](NC(=O)[C@H](CCCCN)NC(=O)[C@@H](NC(=O)[C@H](CCCNC(=N)N)NC(=O)[C@H](CCCCN)NC(=O)[C@H](CC(C)C)NC(=O)[C@H](CC(C)C)NC(=O)CN)[C@@H](C)CC)[C@@H](C)O)[C@@H](C)CC)C(=O)N[C@@H](CC(C)C)C(N)=O (H-GLLKRIKTLLLINLKALAALAKKIL-NH2)	35.6				
2 (≈ 5.43 µg/mL)	4 (≈ 10.9 µg/mL)	2 (≈ 5.43 µg/mL)	2 (≈ 5.43 µg/mL)	CC[C@H](C)[C@H](NC(=O)[C@H](CCCCN)NC(=O)[C@H](CCCCN)NC(=O)[C@H](C)NC(=O)[C@H](CC(C)C)NC(=O)[C@H](C)NC(=O)[C@H](C)NC(=O)[C@H](CC(C)C)NC(=O)[C@H](C)NC(=O)[C@H](CCCCN)NC(=O)[C@H](CC(C)C)NC(=O)[C@H](CC(N)=O)NC(=O)[C@@H](NC(=O)[C@@H]1CCCN1C(=O)[C@H](CC(C)C)NC(=O)[C@H](CC(C)C)NC(=O)[C@@H](NC(=O)[C@H](CCCCN)NC(=O)[C@@H](NC(=O)[C@H](CCCNC(=N)N)NC(=O)[C@H](CCCCN)NC(=O)[C@H](CC(C)C)NC(=O)[C@H](CC(C)C)NC(=O)CN)[C@@H](C)CC)[C@@H](C)O)[C@@H](C)CC)C(=O)N[C@@H](CC(C)C)C(N)=O (H-GLLKRIKTLLPINLKALAALAKKIL-NH2)	83.8				

Reference: ChEMBL document CHEMBL5608163, “Structure modification of anoplin for fighting resistant bacteria” (Eur J Med Chem, 2024)
